Values of other authors as cited in patent US20260191920A1, “METHODS AND COMPOSITIONS FOR TREATING AND PREVENTING CENTRAL NERVOUS SYSTEM DISORDERS AND OTHER CONDITIONS CAUSED BY GUT MICROBIAL DYSBIOSIS” (HOLOBIOME, INC., priority 2019, published 2026).

Experiments:
[1] = by day 6, mice pretreated with oral antibiotics, regardless of diet; cited from earlier work
[2] = test system: (Q+)tRNA^His and (Q+)tRNA^Asn in the liver; conditions: queuine-deficient mice, intraperitoneal, 325 micrograms per injection, 24 h apart; cited from earlier work
[3] = test system: germ-free mice; conditions: chemically synthesized queuine at 0.1 μM in the diet; cited from earlier work

Row | Compound | fraction of ingested dose eliminated [1] | (Q+)tRNA^His and (Q+)tRNA^Asn percentages in the liver [2] | effect on adverse health effects and death of tyrosine- and queuine-deprived germ-free mice [3]
1 | [CH3][Hg][Cl] [methylmercury] | 0-6% |  | 
2 | Nc1nc2[nH]cc(CN[C@H]3C=C[C@H](O)[C@@H]3O)c2c(=O)[nH]1 [queuine, 2-amino-5-((((1S,4S,5R)-4,5-dihydroxy-2-cyclopenten-1-yl)amino)methyl)-1,7-dihydro-4H-pyrrolo (2,3-d) pyrimidin-4-one] |  | corresponding increase | prevented emergence of these deleterious effects
